Reference: paper PMC5603227 (ChemMedChem, 2017)
≈ marks a conversion by molar mass, not a printed value. Where “and” joins values, the source holds several entries; their conditions need not be identical. Identical values can stand only once. Like-named read-outs stand apart in the source and are kept apart here.

Legend:
HepG2 cells = assay: cells; format: cell-based, human
[1] = test system: Mtb H37Rv in infected THP-1 cells; assay: Intracellular activity in infected THP-1 cells; format: cell-based; conditions: Mycobacterium tuberculosis, read-out: MIC against intracellular Mtb
[2] = test system: THP-1 human monocytic cell line; assay: THP-1 cytotoxicity; conditions: macrophage cytotoxicity relative to intracellular MIC
[3] = test system: Mycobacterium tuberculosis H37Rv; assay: Microplate alamar blue assay; format: cell-based
Mycobacterium avium = assay: MIC against non-tuberculous mycobacteria; format: cell-based; conditions: read-out: MIC M. avium
Caco-2 cell monolayer = conditions: human
in vitro [4] = conditions: plasma
in vitro [5] = conditions: human; for Papp A→B at 1 h / Papp A→B at 2 h / Papp B→A at 1 h / Papp B→A at 2 h: Caco-2; for efflux ratio: Caco-2, Caco-2 Efflux Ratio (average)
in vitro [6] = conditions: human; for microsomal CLint: s9; for half-life: s9, Human liver S9 Microsomes T ½
CYP2B6 = CYP2B6 (Homo sapiens, UniProt P20813); assay: biochemical
CYP2C8 = CYP2C8 (Homo sapiens, UniProt P10632); assay: biochemical
CYP2C9 = CYP2C9 (Homo sapiens, UniProt P11712); assay: biochemical
CYP2C19 = CYP2C19 (Homo sapiens, UniProt P33261); assay: biochemical
CYP2D6 = CYP2D6 (Homo sapiens, UniProt P10635); assay: biochemical
CYP3A4 = CYP3A4 (Homo sapiens, UniProt P08684); assay: biochemical; conditions: Cytochrome P450 Inhibition IC50 CYP3A4
[7] = Relative aqueous solubility by turbidity in 7H9/ADC/Tween medium; conditions: 200 μM highest concentration tested
[8] = Homo sapiens, HepG2, read-out: IC50 HepG2 Gal, galactose medium
[9] = Homo sapiens, HepG2, read-out: IC50 HepG2 Glu, glucose medium

Chain of CYP3A4 (P08684 whole entry): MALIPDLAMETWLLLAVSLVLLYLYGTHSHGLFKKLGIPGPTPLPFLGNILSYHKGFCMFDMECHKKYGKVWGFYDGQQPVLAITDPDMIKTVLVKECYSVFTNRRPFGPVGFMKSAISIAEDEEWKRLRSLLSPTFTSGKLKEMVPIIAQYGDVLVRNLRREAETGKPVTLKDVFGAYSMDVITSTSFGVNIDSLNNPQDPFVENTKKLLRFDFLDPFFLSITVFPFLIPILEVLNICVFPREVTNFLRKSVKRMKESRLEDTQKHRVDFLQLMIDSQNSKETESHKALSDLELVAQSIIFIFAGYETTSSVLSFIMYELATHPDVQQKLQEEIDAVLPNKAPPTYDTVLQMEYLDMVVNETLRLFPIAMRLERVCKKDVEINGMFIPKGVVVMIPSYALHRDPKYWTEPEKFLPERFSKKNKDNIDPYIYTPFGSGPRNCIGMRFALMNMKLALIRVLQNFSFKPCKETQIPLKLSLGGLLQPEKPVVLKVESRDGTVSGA
Chain of CYP2B6 (P20813 whole entry): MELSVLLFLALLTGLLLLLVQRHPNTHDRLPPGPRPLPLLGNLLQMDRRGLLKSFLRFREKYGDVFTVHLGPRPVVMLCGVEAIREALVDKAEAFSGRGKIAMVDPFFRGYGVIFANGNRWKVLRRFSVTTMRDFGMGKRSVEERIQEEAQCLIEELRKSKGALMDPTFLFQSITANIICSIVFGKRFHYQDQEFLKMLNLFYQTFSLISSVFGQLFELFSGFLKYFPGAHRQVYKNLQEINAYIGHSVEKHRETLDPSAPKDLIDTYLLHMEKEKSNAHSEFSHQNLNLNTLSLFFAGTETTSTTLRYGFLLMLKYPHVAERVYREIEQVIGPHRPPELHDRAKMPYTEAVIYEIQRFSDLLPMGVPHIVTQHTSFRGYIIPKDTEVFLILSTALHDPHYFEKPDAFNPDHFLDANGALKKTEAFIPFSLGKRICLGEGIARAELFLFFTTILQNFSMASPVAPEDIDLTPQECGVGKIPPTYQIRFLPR
Chain of CYP2C19 (P33261 whole entry): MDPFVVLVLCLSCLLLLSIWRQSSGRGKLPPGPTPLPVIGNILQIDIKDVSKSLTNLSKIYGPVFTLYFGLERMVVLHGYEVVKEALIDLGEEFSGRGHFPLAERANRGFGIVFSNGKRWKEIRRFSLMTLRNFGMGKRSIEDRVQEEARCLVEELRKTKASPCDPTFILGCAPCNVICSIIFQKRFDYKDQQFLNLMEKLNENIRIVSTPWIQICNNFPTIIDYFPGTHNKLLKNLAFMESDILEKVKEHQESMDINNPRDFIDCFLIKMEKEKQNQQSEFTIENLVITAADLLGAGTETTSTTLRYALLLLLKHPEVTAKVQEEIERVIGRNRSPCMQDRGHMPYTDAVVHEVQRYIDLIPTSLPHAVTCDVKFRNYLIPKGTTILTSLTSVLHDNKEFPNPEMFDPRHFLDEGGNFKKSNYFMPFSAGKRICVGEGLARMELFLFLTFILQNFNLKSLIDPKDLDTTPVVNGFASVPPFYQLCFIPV
Chain of CYP2D6 (P10635 whole entry): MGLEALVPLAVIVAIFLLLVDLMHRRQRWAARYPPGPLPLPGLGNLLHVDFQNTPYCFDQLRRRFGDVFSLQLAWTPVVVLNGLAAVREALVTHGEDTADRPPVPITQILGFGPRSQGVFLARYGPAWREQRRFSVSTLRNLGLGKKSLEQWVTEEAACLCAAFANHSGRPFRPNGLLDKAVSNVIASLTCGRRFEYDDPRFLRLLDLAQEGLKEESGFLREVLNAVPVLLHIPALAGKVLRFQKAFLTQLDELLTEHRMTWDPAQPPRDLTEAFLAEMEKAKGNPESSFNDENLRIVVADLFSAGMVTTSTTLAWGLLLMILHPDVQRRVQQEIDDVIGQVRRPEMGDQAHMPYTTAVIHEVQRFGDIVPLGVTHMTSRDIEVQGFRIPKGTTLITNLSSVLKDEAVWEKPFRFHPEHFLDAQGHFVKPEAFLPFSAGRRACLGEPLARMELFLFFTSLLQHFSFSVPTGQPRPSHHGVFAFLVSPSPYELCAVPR
Chain of CYP2C9 (P11712 whole entry): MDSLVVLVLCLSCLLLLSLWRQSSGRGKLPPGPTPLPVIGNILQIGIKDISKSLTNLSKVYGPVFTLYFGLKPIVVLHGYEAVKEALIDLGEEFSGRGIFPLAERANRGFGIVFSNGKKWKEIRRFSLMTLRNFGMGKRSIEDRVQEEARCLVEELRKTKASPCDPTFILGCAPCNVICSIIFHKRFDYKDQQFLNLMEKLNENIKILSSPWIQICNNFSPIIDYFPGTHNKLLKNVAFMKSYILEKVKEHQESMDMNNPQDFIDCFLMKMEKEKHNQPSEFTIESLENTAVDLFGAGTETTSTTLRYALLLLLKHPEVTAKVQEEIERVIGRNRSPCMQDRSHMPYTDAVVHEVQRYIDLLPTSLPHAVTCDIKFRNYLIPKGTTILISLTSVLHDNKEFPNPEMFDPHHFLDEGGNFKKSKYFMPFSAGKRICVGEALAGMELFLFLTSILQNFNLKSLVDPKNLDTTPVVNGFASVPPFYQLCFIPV
Chain of CYP2C8 (P10632 whole entry): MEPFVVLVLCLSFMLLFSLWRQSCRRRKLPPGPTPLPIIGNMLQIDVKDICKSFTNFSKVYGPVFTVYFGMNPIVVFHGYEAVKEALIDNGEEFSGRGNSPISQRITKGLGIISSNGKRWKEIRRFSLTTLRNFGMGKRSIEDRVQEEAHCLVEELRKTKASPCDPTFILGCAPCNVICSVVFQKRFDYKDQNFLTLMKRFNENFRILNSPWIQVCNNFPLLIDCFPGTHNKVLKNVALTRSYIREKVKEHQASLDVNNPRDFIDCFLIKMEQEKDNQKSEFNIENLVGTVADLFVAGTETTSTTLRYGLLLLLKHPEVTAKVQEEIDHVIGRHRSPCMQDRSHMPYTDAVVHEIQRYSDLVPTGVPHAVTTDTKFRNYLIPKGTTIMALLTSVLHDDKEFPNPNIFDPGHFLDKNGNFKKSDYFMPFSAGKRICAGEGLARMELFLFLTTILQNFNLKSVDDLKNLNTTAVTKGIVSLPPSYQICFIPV

With `CCc1nc2ccc(Cl)cn2c1C(=O)NCc1ccc(S(F)(F)(F)(F)F)cc1` [Compound 17, 6-Chloro-2-ethyl-N-(4-(pentafluoro-λ^6-sulfanyl)benzyl)imidazo[1,2-a]pyridine-3-carboxamide] the IC50 (HepG2 cells; [8]) was greater than 25 µM, the IC50 (HepG2 cells; [9]) was greater than 25 µM and the MIC [1] was less than 0.01 µM. For the same compound, the therapeutic window [2] was greater than 100.
In the case of `Cc1cn2c(C(=O)NCc3ccc(S(F)(F)(F)(F)F)cc3)c(C)nc2s1` [Compound 19, 2,6-Dimethyl-N-(4-(pentafluoro-λ^6-sulfanyl)benzyl)imidazo[2,1-b]thiazole-5-carboxamide], the MIC [3] is reported as less than 0.1 µM, the IC50 (HepG2 cells; [8]) is reported as greater than 25 µM and the IC50 (HepG2 cells; [9]) is reported as greater than 25 µM. For the same compound, the MIC (Mycobacterium avium) was 200 µM (≈ 82.3 µg/mL), the “Caco-2 Efflux Ratio (average)” value (Caco-2 cell monolayer) was 0.988 and the “Human liver S9 Microsomes T ½” value was 13.3 min. It also gave a fraction unbound (in vitro [4]) of 0.003, a Papp A→B at 1 h (in vitro [5]) of 6.35 ×10⁻⁶ cm/s and a Papp A→B at 2 h (in vitro [5]) of 12.1 ×10⁻⁶ cm/s. It also gave a Papp B→A at 1 h (in vitro [5]) of 8.35 ×10⁻⁶ cm/s, a Papp B→A at 2 h (in vitro [5]) of 8.1 ×10⁻⁶ cm/s and an efflux ratio (in vitro [5]) of less than 1. The microsomal CLint (in vitro [6]) was 175 µL/min/mg, the half-life (in vitro [6]) was 13.5 min and the IC50 (CYP2B6) was greater than 20 µM. For the same compound, the IC50 (CYP2C8) was greater than 20 µM, the IC50 (CYP2C9) was 14 µM and the IC50 (CYP2C19) was 13.5 µM. For the same compound, the IC50 (CYP2D6) was 13.4 µM and the IC50 (CYP3A4) was greater than 20 µM.
`Cc1cn2c(C(=O)NCc3cccc(S(F)(F)(F)(F)F)c3)c(C)nc2s1` [Compound 20, 2,6-Dimethyl-N-(3-(pentafluoro-λ^6-sulfanyl)benzyl)imidazo[2,1-b]thiazole-5-carboxamide] gave an IC50 (HepG2 cells; [8]) of 14 µM, an IC50 (HepG2 cells; [9]) greater than 25 µM and an IC50 (HepG2 cells; read-out: IC50 HepG2 Gal, galactose medium) of 14.1 µM.
`Cc1ccn2c(C(=O)NCc3ccc(S(F)(F)(F)(F)F)cc3)c(C)nc2c1` [Compound 13, 2,7-Dimethyl-N-(4-(pentafluoro-λ^6-sulfanyl)benzyl)imidazo[1,2-a]pyridine-3-carboxamide] gave an MIC [3] of less than 0.1 µM, an IC50 (HepG2 cells; [8]) greater than 25 µM and an IC50 (HepG2 cells; [9]) greater than 25 µM. For the same compound, the MIC [1] was less than 0.01 µM.
`Cc1ccc2nc(C)c(C(=O)NCc3cccc(S(F)(F)(F)(F)F)c3)n2c1` [Compound 16, 2,6-Dimethyl-N-(3-(pentafluoro-λ^6-sulfanyl)benzyl)imidazo[1,2-a]pyridine-3-carboxamide] gave an MIC [3] of less than 0.1 µM, an IC50 (HepG2 cells; [8]) greater than 25 µM and an IC50 (HepG2 cells; [9]) greater than 25 µM.
Compound `Cc1ccn2c(C(=O)NCc3cccc(S(F)(F)(F)(F)F)c3)c(C)nc2c1` [Compound 14, 2,7-Dimethyl-N-(3-(pentafluoro-λ^6-sulfanyl)benzyl)imidazo[1,2-a]pyridine-3-carboxamide] has an IC50 (HepG2 cells; [8]) greater than 25 µM, an IC50 (HepG2 cells; [9]) greater than 25 µM and an MIC (Mycobacterium avium) of 200 µM (≈ 81.1 µg/mL).
With `Cc1ccc2nc(C)c(C(=O)NCc3ccc(S(F)(F)(F)(F)F)cc3)n2c1` [Compound 15, 2,6-Dimethyl-N-(4-(pentafluoro-λ^6-sulfanyl)benzyl)imidazo[1,2-a]pyridine-3-carboxamide] the MIC [3] was less than 0.1 µM, the IC50 (HepG2 cells; [8]) was greater than 25 µM and the IC50 (HepG2 cells; [9]) was greater than 25 µM. The MIC [1] was less than 0.01 µM.
Compound `CC/C(=C(/CC)c1ccc(O)cc1)c1ccc(O)cc1` [diethylstilbestrol] has an Aq. sol [7] of 125 µM.
In the case of `CCc1nc2ccc(Cl)cn2c1C(=O)NCc1cccc(S(F)(F)(F)(F)F)c1` [Compound 18, 6-Chloro-2-ethyl-N-(3-(pentafluoro-λ^6-sulfanyl)benzyl)imidazo[1,2-a]pyridine-3-carboxamide], the IC50 (HepG2 cells; [8]) is reported as greater than 25 µM, the IC50 (HepG2 cells; [9]) is reported as greater than 25 µM and the “Caco-2 Efflux Ratio (average)” value (Caco-2 cell monolayer) is reported as 3.16. It also gave a fraction unbound (in vitro [4]) of 0.001, a Papp A→B at 1 h (in vitro [5]) of 1.09 ×10⁻⁶ cm/s and a Papp A→B at 2 h (in vitro [5]) of 1.99 ×10⁻⁶ cm/s. For the same compound, the Papp B→A at 1 h (in vitro [5]) was 3.65 ×10⁻⁶ cm/s, the Papp B→A at 2 h (in vitro [5]) was 5.61 ×10⁻⁶ cm/s and the efflux ratio (in vitro [5]) was 3.2. For the same compound, the microsomal CLint (in vitro [6]) was 89.7 µL/min/mg, the half-life (in vitro [6]) was 25.8 min and the IC50 (CYP2B6) was 8.4 µM. It also gave an IC50 (CYP2C8) of 14.4 µM, an IC50 (CYP2C9) of 10.4 µM and an IC50 (CYP2C19) of 10.6 µM. For the same compound, the IC50 (CYP2D6) was 6.5 µM and the IC50 (CYP3A4) was 8.4 µM and > 20 µM.
In the case of `NNC(=O)c1ccncc1` [INH, Isoniazid, reference compound], the MIC [1] is reported as 0.37 µM (≈ 0.0507 µg/mL).
Work on `CC(=O)NC[C@H]1CN(c2ccc(N3CCOCC3)c(F)c2)C(=O)O1` [LIN, linezolid, reference compound] yielded an IC50 (HepG2 cells; [8]) greater than 25 µM and an IC50 (HepG2 cells; [9]) greater than 25 µM.
